Assay results published in article PMC10954796, “Post-translational modifications of beta-amyloid alter its transport in the blood-brain barrier in vitro model” (Frontiers in Molecular Neuroscience, 2024).
Ends that are not written are not given here.

Molecular target: T1, sRAGE (Homo sapiens, UniProt Q15109)
T1 construct: the soluble extracellular part of RAGE (sRAGE); purchased Abcam
Test: Microscale thermophoresis, interaction with sRAGE
Assay type: binding
Conditions: MST, Monolith NT.115; 50 nM RED-tris-NTA-labeled His-tag sRAGE; peptide 6.1 nM to 200 μM; 4% DMSO, 20% glycerol; mean ± SD, n = 4–5; read-out: dissociation constant (Kd) with sRAGE

T1 sequence (Q15109 23-342 limits assumed): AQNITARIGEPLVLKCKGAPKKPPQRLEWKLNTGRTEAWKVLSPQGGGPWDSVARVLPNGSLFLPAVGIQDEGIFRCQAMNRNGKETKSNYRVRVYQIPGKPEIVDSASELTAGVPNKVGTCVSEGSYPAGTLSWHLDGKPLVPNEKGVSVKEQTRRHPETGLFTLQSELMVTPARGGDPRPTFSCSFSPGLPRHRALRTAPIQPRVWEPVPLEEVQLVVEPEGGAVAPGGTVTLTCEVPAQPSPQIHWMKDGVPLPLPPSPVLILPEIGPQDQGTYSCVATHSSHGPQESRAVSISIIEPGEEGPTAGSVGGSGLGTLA

## LVFFAEDVGSNKGAIIGLMVGGVVIA [Aβ17 − 42]
  Kd: 10 ± 5 µM
